Entries after “also recorded” stand apart in the source; their conditions may differ.
Experiments:
COLO 829 cells [1] = assay: lactate excretion by COLO 829 cells; assay type: cell-based; conditions: for lactate formation in COLO 829 cells, sequential re-insertion: inhibitor added 8 hours after inoculation, then at 24-hour intervals, low concentrations (from 10 µM)
Protocol: (§1) Preliminary in vivo tests were run by measuring lactate production by three different tumorigenic cell lines. Again, 100 µM concentrations of tested compounds have been added to the medium. For the experiment, the following tumorigenic cells lines originating from different tumours were tested: Caco-2 cells (Figure 10a), originating from colorectal adenoma carcinoma; COLO 829 cells (Figure 10b), isolated from melanoma; and MDA-MB-231 cells (Figure 10c) derived from metastatic phase of mammary/breast cancer. All adherent cell lines were grown in the RPMI 1640 GlutaMAX substrate (Thermo Fisher) supplemented with 10% FBS.
On the basis of preliminary results, inhibitors No. 23, 29, 30 and 31 were tested on COLO 829 cells. […] No significant discrepancies of total cell numbers in respect to the control were observed due to the different concentrations of inhibitors in the medium (Figure 13e). The average percent of dead COLO 829 cells in the control and in the presence of different concentrations of inhibitors were as follows: inh. 23 (9,23±0,6%), inh. 29 (9,31±0,73%), inh. 30 (8,27±0,49%), inh. 31 (8,26±0,38%). Additionally, cytotoxicity of inh. 3 (5,01±1,08%) and 9 (3,65±0,78%) for COLO 829 cells were also determined. No dose dependent decrease of survival was observed by any inhibitor.
(§2) A decrease in inhibitory effectiveness of some compounds was observed after certain period of time (Example 11). […] Therefore, the influence of selected inhibitors was assessed by sequential re-insertion of low concentrations of inhibitors at indicated time points. The inhibitors were first added to the medium 8 hours after the inoculation followed by periodically additions at 24-hour intervals (marked by arrows).
No significant cytostatic (Figure 16f) of cytotoxic effect of inhibitors could be detected after 92 hours of incubation despite of sequential addition of various concentrations of inhibitors. The following average percentages of dead cells were perceived in the medium without and media with inh. 3 (1,95±0,15%) inh. 9 (1,70±0,14%), inh. 23 (2,40±0,09%), inh. 29 (1,66±0,25%) and inh. 30 (1,38±0,18%). No detrimental effects of increased inhibitors concentrations on cell deaths have been observed.

MDA-MB-231 cells [2] = assay: cytotoxicity in MDA-MB-231 cells (LDH kit); assay type: cell-based; conditions: for average percentages of dead cells, MDA-MB-231, sequential re-insertion: sequential addition at 24-hour intervals, 92 hours, average over medium without and with inhibitor; for average percent of dead MDA-MB-231 cells: single addition, average over control and different concentrations of inhibitor
Protocol: (§3) Lactate generation, growth yield and survival under normal and inhibitory conditions of three different tumorigenic cells lines were determined in more detailed measurements. […] Cytotoxicity was measured by the Lactate dehydrogenase (LDH) kit (Roche).
Inhibitors No. 23, 29, 30 and 31 were tested for preventing lactate generation by the MDA-MB-231 cells.

MDA-MB-231 cells [3] = assay: lactate excretion by MDA-MB-231 cells; assay type: cell-based; conditions: single addition, different concentrations
Protocol: as §1
Inhibitors No. 23, 29, 30 and 31 were tested for preventing lactate generation by the MDA-MB-231 cells. […] No significant discrepancies of total cell numbers were observed (Figure 14e) due to the different concentrations of inhibitors in the medium. […] The average percent of dead MDA-MB-231 cells in the control and in the presence of different concentrations of inhibitors were as follows: inh. 23 (2,98±0,2%), inh. 29 (3,37±0,39%), inh. 30 (3,4±0,21%), inh. 31 (6,87±0,44%). Additionally, cytotoxicity of inh. 3 (7,2±0,47%) and 9 (6,59±0,29%) for MDA-MB-231 cells were also determined. No dose dependent decrease of survival was observed by any inhibitor.
as §2
In MDA-MB-231 calls similar results to those found in Caco-2 cells were observed. […] No significant cytostatic (Figure 17f) or cytotoxic effect of inhibitors could be detected after 92 hours of incubation despite of sequential addition of various concentrations of inhibitors. The following average percentages of dead cells were perceived in the medium without and with inh. 3 (2,05±0,18%), inh. 9 (1,85±0,05%), inh. 23 (2,20±0,15%), inh. 29 (1,54±0,16%) and inh. 30 (2,00±0,18%). No detrimental effects of increased inhibitors concentrations on cell deaths have been observed.

Caco-2 cells [4] = assay: total cell numbers of Caco-2 cells at end of incubation; assay type: cell-based; conditions: single addition, end of incubation (92 hours)
Protocol: as §3

[5] = biological target: T1, modified (70 kDa) 6-phosphofructo-1-kinase (PFK-L), sfPFK-L (Homo sapiens, UniProt P17858); assay: in vitro inhibition of purified recombinant modified PFK-L fragment
T1 sequence (P17858 1-645 limits assumed): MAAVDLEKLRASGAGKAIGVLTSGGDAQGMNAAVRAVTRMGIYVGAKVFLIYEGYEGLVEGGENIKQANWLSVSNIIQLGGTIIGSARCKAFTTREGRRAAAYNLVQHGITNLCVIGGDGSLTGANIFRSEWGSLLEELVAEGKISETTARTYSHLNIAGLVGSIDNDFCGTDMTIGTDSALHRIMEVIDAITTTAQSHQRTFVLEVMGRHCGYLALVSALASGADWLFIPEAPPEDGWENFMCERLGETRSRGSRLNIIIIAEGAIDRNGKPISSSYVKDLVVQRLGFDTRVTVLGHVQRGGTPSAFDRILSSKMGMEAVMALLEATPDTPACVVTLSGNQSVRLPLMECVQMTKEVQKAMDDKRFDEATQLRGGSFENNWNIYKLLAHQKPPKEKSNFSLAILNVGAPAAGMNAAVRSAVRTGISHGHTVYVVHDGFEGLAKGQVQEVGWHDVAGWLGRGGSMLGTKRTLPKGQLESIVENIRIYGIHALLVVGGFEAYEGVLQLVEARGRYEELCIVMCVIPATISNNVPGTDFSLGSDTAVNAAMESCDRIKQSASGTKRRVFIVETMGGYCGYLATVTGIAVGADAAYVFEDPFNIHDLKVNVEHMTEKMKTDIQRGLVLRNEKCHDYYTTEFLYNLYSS

COLO 829 cells [6] = assay: cytotoxicity in COLO 829 cells (LDH kit); assay type: cell-based; conditions: for average percentages of dead cells, COLO 829, sequential re-insertion: sequential addition at 24-hour intervals, 92 hours, average over medium without and with inhibitor; for average percent of dead COLO 829 cells: single addition, average over control and different concentrations of inhibitor
Protocol: as §3

Caco-2 cells [7] = assay: cytotoxicity in Caco-2 cells (lactate dehydrogenase (LDH) kit); assay type: cell-based; conditions: for average percent of dead cells, Caco-2: single addition, average over control and different concentrations of inhibitor
Protocol: as §3

Caco-2 cells [8] = assay: lactate excretion by Caco-2 cells; assay type: cell-based; conditions: single addition, different concentrations (20-80 µM)
Protocol: as §1, with “Again, 100 µM concentrations of tested compounds have been added to the medium.” left out, “cancer.” for “cancer. All adherent cell lines were grown in the RPMI 1640 GlutaMAX substrate (Thermo Fisher) supplemented with 10% FBS.”
as §3
Therefore, the influence of selected inhibitors was assessed by sequential re-insertion of low concentrations of inhibitors at indicated time points. The inhibitors were first added to the medium 8 hours after the inoculation followed by periodically additions at 24-hour intervals (marked by arrows).

Jurkat cells [9] = assay: Seahorse XF assay (ECAR and OCR) in Jurkat cells; assay type: cell-based, human
Protocol: The efficiency of Inhibitors No. 3 and No. 9 was also tested by the determinations of glycolytic capacities in Jurkat cells in the presence and absence of inhibitors. For this purpose, Seahorse XF assay (Agilent Technology) was performed that enables non-destructive measurements of extracellular acidification rate (ECAR) and oxygen consumption rate (OCR) of tested cells. The cells were incubated in […] GlutaMAX medium with 10% FBS and 24 hours before the experiment inhibitors were added (100 µM). Non-adherent Jurkat cells (1×10^6 per mL) were stuck to the bottom of the wells by poly-I-lysine. The experiment was conducted essentially as recommended by Seahorse XF protocol and after 20 minutes of incubation, 1 µM of oligomycin A (ATP synthase inhibitor) and 0,25 µM of Carbonyl cyanide-4-(trifluoromethoxy)phenylhydrazone (FCCP) (mitochondrial oxidative phosphorylation uncoupler) were added to the cells. […] Reduced lactate excretion by the cells treated with both inhibitors might be responsible for reduced ECARs. Although the addition of oligomycin A and FCCP increased the extracellular acidification rate by the cells treated with both inhibitors, similar increase of ECAR was also observed in the untreated cells. […] It implies that inhibited PFK1 enzymes might reduce glycolytic flux and prevent the need for pyruvate reduction into lactate by re-oxidizing redundant cytosolic NADH. Under such conditions pyruvate can enter mitochondria, replenishing tri-carboxylic acids (TCA) cycle and fuelling oxidative respiration.

Jurkat cells [10] = assay: growth and survival of Jurkat cells (Countess, Trypan blue); assay type: cell-based
Protocol: The effects of both inhibitors were tested also on growth of the non-adherent Jurkat cells. Total amount of cells and the number of dead cells was determined by the Countess (Invitrogen, Carlsbad, CA). […].

Jurkat cells [11] = assay: lactate excretion by Jurkat cells (enzymatic L-lactic acid kit); assay type: cell-based, human
Protocol: The cells were incubated in 1 mL volume (24 well plates) at 5% CO2 and 37°C. The inhibitors were added in 100 µM concentration. As a control, equivalent amount of DMSO as used for the addition of inhibitors was supplemented to the medium. The tests started with 1×10^5 cells per mL. Extracellular lactate excreted by the Jurkat cells was measured in the supernatant of the growth medium after the cells were removed by centrifugation at 1500 rpm for 5 minutes. Lactate concentration was determined enzymatically using L-Lactatic acid kit (K-LATE, Megazyme, Ireland).
Measurements of lactate excretion in the tumorigenic Jurkat cells and the cells treated with two selected inhibitors at different concentrations were repeated by more detailed measurements. The growth conditions were identical to those described in Experiment 2. No significant difference in lactate excretion could be observed by the treated and untreated cells during the initial stage of growth that lasted for approximately 12 hours. Later on lactate excretion by the Jurkat cells ceased in the presence of both inhibitors.

Jurkat cells [12] = assay: long-term fed-batch cultivation of Jurkat cells (18 days); conditions: 100 µM, fed-batch, 18 days
Jurkat cells [13] = assay: NADH levels in Jurkat cells (NADH/NAD fluorometric assay kit); assay type: cell-based, human; conditions: 24 hours after addition, different concentrations
Protocol: By inhibiting modified PFK-M enzyme in the cancer cells, glycolytic flux should be decreased and concomitantly NADH levels reduced. To verify that, the amounts of reduced pyridine nucleotide was measured by NADH/NAD fluorometric assay kit (Abcam). The Jurkat cells were seeded into the wells of 96 wells plate at 5×10^5 cells per mL. The untreated cells (control) and the cells with specified amounts of added Inhibitors No. 3 and No. 9 were incubated for 24 hours.

| SMILES | lactate formation in COLO 829 cells, sequential re-insertion (COLO 829 cells [1]) | average percentages of dead cells, MDA-MB-231, sequential re-insertion (MDA-MB-231 cells [2]) | average percent of dead MDA-MB-231 cells (MDA-MB-231 cells [2]) | IC50 [5] [µM] | average percentages of dead cells, COLO 829, sequential re-insertion (COLO 829 cells [6]) | average percent of dead COLO 829 cells (COLO 829 cells [6]) | average percent of dead cells, Caco-2 (Caco-2 cells [7]) | other results |
| --- | --- | --- | --- | --- | --- | --- | --- | --- |
| Nc1nnc(-c2cc(-c3ccc(O)cc3)on2)o1 [Inhibitor No. 30, 4-[3-(5-amino-1,3,4-oxadiazol-2-yl)isoxazol-5-yl]phenol] | slightly weaker inhibitions | 2,00±0,18% | 3,4±0,21% | 10 | 1,38±0,18% | 8,27±0,49% |  | lactate excretion by COLO 829 cells (COLO 829 cells [1]; single addition, different concentrations): strongest reductions of lactate excretion; lactate excretion by MDA-MB-231 cells (MDA-MB-231 cells [3]): strong inhibition; total cell numbers, Caco-2 (Caco-2 cells [4]): minor dose dependent reductions in total cell numbers |
| O=C(CCS(=O)(=O)c1ccccc1)Nc1nnc(-c2ccno2)o1 [Inhibitor No. 32, 3-(benzenesulfonyl)-N-(5-isoxazol-5-yl-1,3,4-oxadiazol-2-yl)propanamide] |  |  |  | 8 |  |  | 3,97±0,18% | lactate generation by Caco-2 cells (Caco-2 cells [8]): strong inhibition at all tested concentrations |
| COc1ccc(-c2cccc(-c3ccn(Cc4noc(C)n4)n3)c2)nn1 [Inhibitor No. 9, 3-methoxy-6-(3-{1-[(5-methyl-1,2,4-oxadiazol-3-yl)methyl]-1H-pyrazol-3-yl}phenyl)pyridazine] | strong reduction of lactate formation | 1,85±0,05% | 6,59±0,29% |  | 1,70±0,14% | 3,65±0,78% | 3,33±0,14% | ECAR and OCR values prior to the addition of oligomycin A and FCCP (Jurkat cells [9]; 100 µM added 24 hours before the experiment, treated versus untreated cells): untreated Jurkat cells revealed higher ECAR and OCR values; oxygen consumption rate after addition of oligomycin A and FCCP (Jurkat cells [9]; 100 µM, 1 µM oligomycin A and 0,25 µM FCCP, versus untreated cells): slightly stronger affect; dead cells (Jurkat cells [10]; Jurkat cells stained with Tripan blue): 3,76±0,3%; effect on growth of Jurkat cells (total cell numbers) (Jurkat cells [10]; different concentrations, 72 hours): no effect; time at which lactate production was averted (Jurkat cells [11]; inhibitor concentrations lower than 200 µM): 36 h; lactate excretion by the Jurkat cells (Jurkat cells [11]; preliminary test, 100 µM inhibitor, followed for 48 hours, versus DMSO control): Significantly lowered lactate excretions; also recorded: effectively prevented excretion; viability of the Jurkat cells, long-term (Jurkat cells [12]): remained unchanged; number of cells, long-term (Jurkat cells [12]; fresh medium with inhibitor every 48 hours): steadily declined; NADH levels (Jurkat cells [13]): steadily decreased in dose dependent manner; average percentages of dead cells, Caco-2, sequential re-insertion (Caco-2 cells [7]; sequential addition at 24-hour intervals, 92 hours, average over medium without and with inhibitor): 5,05±0,62% |

Source: EP3833345B1, “SMALL MOLECULE-INHIBITORS OF 6-PHOSPHOFRUCTO-1-KINASE FOR REDUCING LACTATE GENERATION BY CANCER CELLS” (Kemijski Institut, priority 2018, dated 2020)
